Data on nine compounds can be found in paper PMC9665079, “Structure-activity exploration of a small-molecule allosteric inhibitor of T790M/L858R double mutant EGFR” (Journal of Enzyme Inhibition and Medicinal Chemistry, 2022).

In one experiment the target is T1, EGFR(T790M/L858R) (Homo sapiens, UniProt P00533, L858R/T790M).
T1 construct: purchased BPS Bioscience 40322
Nature of the experiment: In vitro non-radioactive kinase assay, EGFR(T790M/L858R) Kinase Assay Kit (BPS Bioscience). Type of experiment: biochemical. Particulars: for IC50: EGFR(T790M/L858R) Kinase Assay Kit, concentration inhibiting 50% enzyme activity, read-out: IC50 (μM) ± Std. Dev.; for Activity on mutant EGFR in kinase assay (in words): compared with compound 4, five independent experiments. As for the experimental part:
In vitro kinase assays were performed using the EGFR(T790M/L858R) Kinase Assay Kit (BPS
Bioscience, Cat. #40322) in the presenc e of compounds or vehicle . Assays conditions were set
according to the manufacturer’s instructions. Dose -response curves were fitted by non -linear
regression of normalized enzyme activity vs log[inhibitor] data, using GraphPad Prism software. […]

Experiment [1] concerns H1975 lung cancer cell line expressing the double mutant L858R/T790M EGFR. The experiment can be described thus: Cell proliferation / viability by MTS assay in H1975 cells. It is filed as cell-based. Conditions: 72 hours, micromolar concentrations. The protocol: Compounds 15 and 18 were then tested in cell proliferation assays on the H1975 lung cancer cell line expressing the double mutant L858R/T790M EGFR.
(§1) Figure 3. Activity of compounds 15 and 18 in H1975 cells. (A) Cell viability was measured by MTS assay. (B) EGFR phosphorylation was assessed by Western blot after 8-h incubation with the compounds (10 µM). Total EGFR and actin are shown for loading control. […]
(§2) 3-nitroaniline 1a (119 mg); 4-fluoro-3-(iminomethyl)phenyl acetate 2h (181 mg); 5-fluoro-2-methyl-1H-indole 3b (149 mg); purification: procedur b, […]
In vitro kinase assays were performed using the EGFR(T790M/L858R) Kinase Assay Kit (BPS Bioscience, Cat. #40322) in the presenc e of compounds or vehicle . Assays conditions were set according to the manufacturer’s instructions. […]
(§3) For cytotoxicity assays, compounds were added to cells in 96-well plates for 72 hours. Cell viability was measured by MTS assay using the CellTiter 96® AQueous One Solution Cell Proliferation Assay System (Promega, Madison, WI, USA) according to instructions. Inhibition of EGFR was assessed by Western blotting after incubating the cells with the compounds for 8 hours. […]
(§4) Chemiluminescence was detected using a ChemiDoc XRS+ System (Bio-Rad, Hercules, CA, USA) and Image Lab software (Bio-Rad). […]

Experiment [2] relates to phospho-EGFR (Tyr1068) in H1975 cells. The experiment can be described thus: EGFR phosphorylation by Western blot in H1975 cells. Type of experiment: cell-based. Particulars: Western blot after 8-h incubation, 10 µM. As for the experimental part: as §1, §2
In vitro kinase assays were performed using the EGFR(T790M/L858R) Kinase Assay Kit (BPS Bioscience, Cat. #40322) in the presenc e of compounds or vehicle . Assays conditions were set according to the manufacturer’s instructions. Dose -response curves were fitted by non -linear regression of normalized enzyme activity vs log[inhibitor] data, using GraphPad Prism software.
as §3, §4

In experiment [3] the test system is T790M/L858R double mutant EGFR. Further details: method as in PMID 29766737. Particulars: type III allosteric inhibitor of T790M/L858R double mutant EGFR; cited from earlier work.
The next experiment has as its system wt EGFR H1299 cell line. Further details: method as in PMID 29766737. Conditions: read-out: IC50 anti-proliferative activity; cited from earlier work.
The subject of experiment [4] is mutant EGFR H1650 cell line. Further details: method as in PMID 29766737. Particulars: read-out: IC50 anti-proliferative activity; cited from earlier work.
Experiment [5] relates to double mutant H1975 cell line. Also on record: method as in PMID 29766737. Conditions: read-out: IC50 anti-proliferative activity; cited from earlier work.

Molecules are shown by their SMILES.

As to `Cc1[nH]c2ccccc2c1C(Nc1cccc([N+](=O)[O-])c1)c1ncccc1O` (stereo not shown) [Compound 12], at EGFR(T790M/L858R), the IC50 worked out at 96 ± 30 µM.

For `Cc1[nH]c2ccccc2c1C(Nc1cccc([N+](=O)[O-])c1)c1cc(F)ccc1O` (stereo not shown) [Compound 17], the IC50 on EGFR(T790M/L858R) is 63 ± 12 µM.

For `O=[N+]([O-])c1cccc(NC(c2ccccn2)c2c[nH]c3ccccc23)c1` (stereo not shown) [Compound 8], the IC50 at EGFR(T790M/L858R) is 95 ± 31 µM.

`COc1ccc(F)cc1C(Nc1cccc([N+](=O)[O-])c1)c1c(C)[nH]c2ccccc12` (stereo not shown) [Compound 14]: the “Activity on mutant EGFR in kinase assay (in words)” value (from here on “Activity on mutant EGFR”) at EGFR(T790M/L858R) is on record as “lack of activity”.

Regarding `Cc1[nH]c2ccccc2c1C(Nc1cccc([N+](=O)[O-])c1)c1cc(O)ccc1F` (stereo not shown) [Compound 18], at EGFR(T790M/L858R), the IC50 stood at 27 ± 5 µM and the “Activity on mutant EGFR” value was “significantly improved activity with respect to 4”. The “Inhibition of cell proliferation (in words)” value in experiment [1] is “inhibited cell proliferation”. In addition, in experiment [2], the “Inhibition of EGFR phosphorylation (in words)” value is given as “inhibited”.

As for `Cc1[nH]c2ccccc2c1C(Nc1cccc([N+](=O)[O-])c1)c1ccccc1O` (stereo not shown) [Compound 15], on EGFR(T790M/L858R), the concentration for half-maximal inhibition (IC50) came out at 33 ± 4 µM and the “Activity on mutant EGFR” value is reported as “significantly improved activity with respect to 4”. In experiment [1], the “Inhibition of cell proliferation (in words)” value was “inhibited cell proliferation”. In addition, in experiment [2], the “Inhibition of EGFR phosphorylation (in words)” value was “inhibited”.

On to `Cc1[nH]c2ccc(F)cc2c1C(Nc1cccc([N+](=O)[O-])c1)c1ccccn1` (stereo not shown) [Compound 7], for which the IC50 at EGFR(T790M/L858R) was found to be 123 ± 17 µM.

For the compound `Cc1[nH]c2ccccc2c1C(Nc1cccc([N+](=O)[O-])c1)c1ccccn1` (stereo not shown) [Compound 4], the IC50 on EGFR(T790M/L858R) was 154 ± 11 µM; with wt EGFR H1299 cell line, 14.5 ± 0.3 µM; in experiment [4], 19 ± 2 µM; in experiment [5], 24 ± 2 µM. In experiment [3], the EC50 is 6.2 ± 0.5 µM.

In the case of `Cc1[nH]c2ccccc2c1C(Nc1cccc([N+](=O)[O-])c1)c1ccccc1` (stereo not shown) [Compound 13], the “Activity on mutant EGFR” value on EGFR(T790M/L858R) is reported as “lack of activity”.
